{
  "source": "patent US20030176511A1",
  "about": "“Compositions and methods for treating cardiovascular disorders” (priority 2000, published 2003)",
  "key": {"[1]": {"test_system": "aortic lipoprotein lipid peroxidation", "experiment": "Aqueous and lipophilic parameters of apoE−/−;LDLr−/− mouse aortae", "assay_type": "in vivo, mice", "description": "Pooled aortas from 7-8 mice obtained from control or bisphenol-treated mice were homogenized, the lipid extracted and subjected to HPLC with post-column chemiluminescence detection for analysis of cholesteryl ester hydroperoxides (CE-OOH). Chromatograms correspond to aortas of age-matched control (a or b) or drug-treated mice with low or high plasma levels of bisphenol (c and d, respectively). Under the conditions used, CE-OOH eluted between 8 and 9.5 min. The chemiluminescence negative peaks between 4 and 5.5 min correspond to the elution of tocopherols.\nMale apoE−/−;LDLr−/− mice (59 total), were maintained on standard R3 chow from weaning to 8 weeks of age (young controls, n=9). […]\nAnalyses of oxidised and non-oxidised lipids were carried out by RP-HPLC as described in Example 1 except that in some instances UV234 nm rather than post-column chemiluminescence detection was used to measure C18:2-OOH and the corresponding hydroxides (together referred to as CE-O(O)H) which show similar retention times under these chromatographic conditions. α-TQ, α-TOH, α-tocotrienol, D-isosascorbate and ascorbate were determined by HPLC with electrochemical detection. For oxidation of plasma, unesterified cholesterol (which remained non-oxidised in these experiments) was employed as internal standard for all polyunsaturated, lipid-soluble components analysed. […]"}, "[2]": {"test_system": "tocopherol-mediated peroxidation (TMP)", "experiment": "Anti-TMP index", "assay_type": "biochemical"}, "[3]": {"test_system": "atherosclerosis in apoE−/−;LDLr−/− mice", "experiment": "Atherosclerosis (intima volume, descending thoracic aorta) in apoE−/−;LDLr−/− mice", "assay_type": "in vivo", "conditions": "bisphenol for 14 weeks, compared with age-matched controls", "description": "Lesion formation was assessed by changes to intima volume when compared with young and age-matched controls receiving standard chow for 8 and 22 weeks, respectively. *Denotes a statistically significant difference with α<0.025 (Wilcoxon test).\nAortic lesions were assessed in segments centered around the third pair of intercostal artery branches in the descending thoracic aorta. Briefly, the fixed aortas were dehydrated in ethanol, cleared with xylene and embedded in paraffin. Serial sections (10 in total; each 2-3 μm thick and 100 μm apart) were cut and stained using Weigerts hematoxylin-van Gieson. Aortic thickening was assessed as the total volume of intima in the segment investigated in bisphenol-treated versus control samples.\nAortic volumes were determined by planimetry, using a Lucivid device (MicroBrightField, Colchester, Vermont, […]) attached to a Leitz DRM microscope that allowed the superposition of a computer monitor onto the cross sectional image."}, "[4]": {"test_system": "α-tocopheroxyl radical", "experiment": "Tocopheroxyl radical attenuating ability (TRAA)", "assay_type": "biochemical", "conditions": "kobs in presence (+) or absence (−) of test compound"}, "[5]": {"test_system": "plasma lipid peroxidation", "experiment": "Ex vivo peroxyl radical (AAPH)-induced lipid peroxidation of plasma from apoE−/−;LDLr−/− mice", "assay_type": "in vivo", "conditions": "pooled plasma of bisphenol-treated mice, 5 mM AAPH, 37° C.", "description": "Pooled plasma obtained from at least 3 mice receiving control diet (circles) or diet supplemented with bisphenol (squares) were treated with 5 mM AAPH and incubated at 37° C. At the times indicted aliquots were removed and analysed for α-TOH (A) and CE-O(O)H (B). 100% α-TOH levels correspond to 28±3 and 20±2 μM for control and H 212/43 plasma, respectively. Data represents the mean±SD (n=4 independent experiments).\nOxidation of plasma, pooled from=3 mice was carried out by addition of the peroxyl radical generator (final concentrations 5 mM) and incubating the reaction mixture at 37° C. under air. Aliquots (50 μL) of the reaction mixture were removed, extracted in methanol/hexane (1:5, v/v), and the consumption of antioxidants and accumulation of lipid oxidation products determined.\nAnalyses of oxidised and non-oxidised lipids were carried out by RP-HPLC as described in Example 1 except that in some instances UV234 nm rather than post-column chemiluminescence detection was used to measure C18:2-OOH and the corresponding hydroxides (together referred to as CE-O(O)H) which show similar retention times under these chromatographic conditions. α-TQ, α-TOH, α-tocotrienol, D-isosascorbate and ascorbate were determined by HPLC with electrochemical detection. […] All compounds were quantified by peak area comparison with authentic standards. […]"}},
  "data": [
    {"smiles": "CC(C)(C)c1cc(-c2cc(C(C)(C)C)c(O)c(C(C)(C)C)c2)cc(C(C)(C)C)c1O", "note": "[Bisphenol]", "values": [
      {"measurement": "level of oxidised lipids in aortas, fold lower than control", "setting": "[1]; drug-treated animals with high plasma levels of bisphenol", "value": 1000, "unit": "fold"},
      {"measurement": "level of oxidised lipids in aortas, fold lower than control", "setting": "[1]; drug-treated animals with low plasma levels of bisphenol", "value": 10, "unit": "fold"},
      {"measurement": "Anti-TMP index", "setting": "[2]", "value": 3.2},
      {"measurement": "lesion size (intimal volume, descending thoracic aorta)", "setting": "[3]", "value": "substantially decreased the lesion size"},
      {"measurement": "TRAA (decay of α-tocopheroxyl radical; kobs(+)/kobs(−))", "setting": "[4]", "value": "Immediate decay"},
      {"measurement": "CE-OOH detected after 12 h of oxidation", "setting": "[5]", "value": "< 1", "unit": "µM"},
      {"measurement": "α-TOH after 12 h of oxidation", "setting": "[5]", "value": "remained unaltered"}
    ]}
  ]
}
